The source of these data is patent publication US7888285B2, “2,4,6-phenyl substituted cyclic ketoenols” (Bayer CropScience AG, priority 2003, dated 2011).

Assay type in all cases: in vivo
The subject of assay [1] is cereals. The experiment in a line: Container experiments with cereals outside the greenhouse, herbicide:mefenpyr 1:2 tank mix. As to conditions: no safener. As for the experimental part: (§1) Seeds of monocotyledonous and dicotyledonous weed and crop plants are placed in sandy loam in wood fibre pots or in plastic pots, covered with soil and grown in the greenhouse or, during the vegetation period, in the open outside the greenhouse, under good growth conditions. 2 to 3 weeks after sowing, the test plants are treated in the one- to three-leaf stage. The test compounds, which are formulated as wettable powder (WP) or as a fluid (EC), are sprayed onto the plants and the soil surface at various dosage rates with a water application rate of 300 l/ha (converted), with added wetter (0.2 to 0.3%). 3 to 4 weeks after the treatment of the test plants, the effect of the preparations is scored visually in comparison with untreated controls (herbicidal activity in per cent (%): 100% activity=plants have died, 0% activity=like control plants).
(§2) If it is additionally desired to test whether safeners are capable of improving the plant tolerance of test substances with regard to the crop plants, the following options for applying the safeners are used: • Prior to application of the test substances, the crop plants are sprayed with safener at a particular application rate per hectare (usually 1 day prior to application of the test substances). • The safener is applied together with the test substance in the form of a tank mix (the amount of safener being indicated in g/ha or as a safener:herbicide ratio).
(§3) The activity of the safener substance can be assessed in comparison with untreated control plants by comparing the effect of test substances on crop plants which have been treated without and with safener.
Container Experiments with Cereals Outside the Greenhouse Herbicide: mefenpyr 1:2 tank mix

A further assay deals with Spring barley. The experiment in a line: Post-emergence crop plant tolerance, greenhouse experiments with safener pretreatment (mefenpyr). On the procedure:
(§4) Post-Emergence Crop Plant Tolerance
as §1, §2, §3
(§5) Results of Greenhouse Experiments With Safener/Pretreatment (Safener Mefenpyr (100 g a.i./ha), One Day Prior to Post-Emergence Treatment With the Herbicide)

For another assay, the system named is Spring wheat. The assay is described as above. On the procedure:
as §4, §1, §2, §3, §5

Another assay concerns Meloidogyne incognita. The assay is described as follows: Meloidogyne test. Particulars: 20 ppm, with reference to gall formation. On the procedure:
To prepare a suitable active compound preparation, 1 part by weight of active compound is mixed with the stated amounts of solvent and emulsifier and the concentrate is diluted with water to the desired concentration.
Containers are filled with sand, active compound solution, Meloidogyne incognita egg/larval suspension and lettuce seeds. The lettuce seeds germinate and the plantlets develop. The galls develop on the roots.
After the desired time, the nematicidal efficacy is determined I n % with reference to gall formation. 100% means that no galls were found; 0% means that the number of galls on the treated plants corresponds to that of the untreated control.

The test system of assay [2] is Sinapis. The experiment in a line: Pre-emergence test. As to conditions: greenhouse, 250 g a.i./ha, scored after three weeks. As for the experimental part:
(§6) [table] To prepare a suitable active compound preparation, 1 part by weight of active compound is mixed with the stated amount of solvent, the stated amount of emulsifier is added, and the concentrate is diluted with water to the desired concentration. Seeds of the test plant are sown in normal soil. After approximately 24 hours, the soil is sprayed with the active compound preparation in such a way that the amounts of active compound desired in each case are applied per unit area. The concentration of the spray mixture is chosen in such a way that the amounts of active compound desired in each case are applied in 1 000 1 of water/ha. After three weeks, the degree of damage of the plants is scored in % damage in comparison with the development of the untreated control.

The test system of assay [3] is Alopecurus. The experiment in a line: Pre-emergence test. Particulars: greenhouse, 250 g a.i./ha, scored after three weeks. As for the experimental part: as §6
For assay [4], the system named is Echinochloa. The assay is described as follows: Pre-emergence test. As to conditions: greenhouse, 250 g a.i./ha, scored after three weeks. As for the experimental part:
as §6

The test system of assay [5] is Setaria. The assay is described as follows: Pre-emergence test. Particulars: greenhouse, 250 g a.i./ha, scored after three weeks. As for the experimental part:
as §6

In assay [6] the test system is Avena fatua. The experiment in a line: Pre-emergence test. As to conditions: greenhouse, 250 g a.i./ha, scored after three weeks. As for the experimental part:
as §6

Assay [7] has as its system larvae of the mustard beetle (Phaedon cochleariae). The assay is described as follows: Phaedon larvae test. Particulars: 1000 ppm. On the procedure: [table] To produce a suitable preparation of active compound, 1 part by weight of active compound is mixed with the stated amounts of solvent and emulsifier, and the concentrate is diluted with emulsifier-containing water to the desired concentration. Cabbage leaves (Brassica oleracea) are treated by being dipped into the preparation of active compound of the desired concentration and are infested with the larvae of the mustard beetle (Phaedon cochleariae) while the leaves are still moist.

A further assay has as its system sugar beet. The experiment in a line: Post-emergence test. As to conditions: greenhouse, 250 g a.i./ha, scored after three weeks. As for the experimental part: (§7) To prepare a suitable active compound preparation, 1 part by weight of active compound is mixed with the stated amount of solvent, the stated amount of emulsifier is added, and the concentrate is diluted with water to the desired concentration.
(§8) Test plants with a height of 5-15 cm are sprayed with the active compound preparation in such a way that the amounts of active compound desired in each case are applied per unit area. The concentration of the spray mixture is chosen in such a way that the amounts of active compound desired in each case are applied in 1 000 1 of water/ha.
(§9) After three weeks, the degree of damage of the plants is scored in % damage in comparison with the development of the untreated control.
(§10) The figures denote: • 0% =no effect (like untreated control) • 100% =total destruction

The subject of assay [8] is Alopecurus. The assay is described as follows: Post-emergence test. As to conditions: greenhouse, 250 g a.i./ha, scored after three weeks. As for the experimental part:
as §7, §8, §9, §10

The test system of assay [9] is Echinochloa. The assay is described as follows: Post-emergence test. As to conditions: greenhouse, 250 g a.i./ha, scored after three weeks. On the procedure:
as §7, §8, §9, §10

The test system of assay [10] is Setaria. The experiment in a line: Post-emergence test. As to conditions: greenhouse, 250 g a.i./ha, scored after three weeks. On the procedure: as §7, §8, §9, §10
For assay [11], the system named is Avena fatua. The assay is described as follows: Post-emergence test. Particulars: greenhouse, 250 g a.i./ha, scored after three weeks. As for the experimental part: as §7, §8, §9, §10
Assay [12] deals with Sinapis. The experiment in a line: Post-emergence test. Particulars: greenhouse, 250 g a.i./ha, scored after three weeks. On the procedure:
as §7, §8, §9, §10

The test system of assay [13] is cereals. The assay is described as follows: Greenhouse experiment with cereals with 100 g a.i./ha mefenpyr, post-emergence, evaluation 21 days after application. As to conditions: 50 g a.i./ha, no safener. As for the experimental part: as §1, with “plants). […]” for “plants).”
(§11) The activity of the safener substance can be assessed in comparison with untreated control plants by comparing the effect of test substances on crop plants which have been treated without and with safener. […]

The subject of assay [14] is cereals. The assay is described as follows: Container experiments with cereals outside the greenhouse, herbicide + mefenpyr 50 g a.i./ha. As to conditions: 100 g a.i./ha, no safener. As for the experimental part: as §1, with “plants). […]” for “plants).”
as §11

Where [15] appears, read: 25 g a.i./ha herbicide, no safener.
Setting [16] is: 50 g a.i./ha herbicide, no safener.
[17] abbreviates: 100 g a.i./ha herbicide, no safener.
Setting [18] is: application rate 25 g a.i./ha, without safener.
[19] abbreviates: application rate 50 g a.i./ha, without safener.
The mark [20] stands for this setting: application rate 100 g a.i./ha, without safener.

Take `CCc1cc(Cl)cc(OC)c1C1=C(O)C2(CCC(OC)CC2)OC1=O` (mixture of isomers) [Example I-2-a-2]: the “Spring barley observed (%)” value was 20% in the assay on cereals [1] (50 g a.i./ha), 60% in the assay on Spring barley (setting [15]), 60% with Spring barley (setting [16]) and 97% in the assay with Spring barley (setting [17]). Moreover, the “Spring wheat observed (%)” value in the assay with cereals [1] (50 g a.i./ha) was found to be 95%.
As to `CCc1cc(Cl)cc(OC)c1C1=C(OC(=O)C(C)(C)CC)C2(CCC(OC)CC2)OC1=O` (mixture of isomers) [Example I-2-b-4], the “Spring wheat observed (%)” value in the assay on Spring wheat (setting [15]) is on record as 100%. Moreover, the “Spring barley observed (%)” value with Spring barley (setting [17]) came out at 80%.
Take `CCc1cc(Cl)cc(OC)c1C1=C(OC(=O)C(C)C)C2(CCC(OC)CC2)OC1=O` (mixture of isomers) [Example I-2-b-5]: in the assay with Spring wheat (setting [15]), the “Spring wheat observed (%)” value amounted to 99%. In addition, the entries for the “Spring barley observed (%)” value in the assay on Spring barley (setting [15]), in the assay on Spring barley (setting [16]) and in the assay with Spring barley (setting [17]) were 50%, 97% and 100%, respectively.
On to `CCc1cc(Cl)cc(OC)c1C1=C(OC(=O)C(C)(C)C)C2(CCC(OC)CC2)OC1=O` (mixture of isomers) [Example I-2-b-6], for which the “Spring barley observed (%)” value came to 40% in the assay on cereals [1] (50 g a.i./ha), 50% in the assay on Spring barley (setting [15]), 97% in the assay with Spring barley (setting [16]) and 98% in the assay with Spring barley (setting [17]). In addition, in the assay with cereals [1] (50 g a.i./ha), the “Spring wheat observed (%)” value turned out to be 100%.
Regarding `CCOC(=O)OC1=C(c2c(CC)cc(Cl)cc2OC)C(=O)N(CC)C1C` (racemic) [Example I-1-c-7], the “Spring barley observed (%)” value was determined as 15% in the assay on Spring barley (application rate 13 g a.i./ha, without safener); 30% with Spring barley (setting [18]); 85% with Spring barley (setting [19]).
In the case of `CCc1cc(Cl)cc(OC)c1C1=C(O)C2(CCC(C)CC2)NC1=O` (single isomer, unassigned) [Example I-1-a-4], the “Destruction in % after 14 d” value with Meloidogyne incognita is listed as 98%. Also, the “degree of damage, Sinapis” value in the assay with Sinapis [2] turned out to be 90%. The “degree of damage, Alopecurus” value is listed as 90% in the assay with Alopecurus [3] and 100% with Alopecurus [8]. The “degree of damage, Echinochloa” value in the assay with Echinochloa [4] and in the assay on Echinochloa [9] was 100% each time. Besides, the “degree of damage, Setaria” value with Setaria [5] and in the assay with Setaria [10] was 100% throughout. The “degree of damage, Avena fatua” value in the assay with Avena fatua [6] and with Avena fatua [11] was 100% each time. In assay [7], the “Destruction in % after 7 d” value is 100%. For the same molecule, in the assay on sugar beet, the “degree of damage, sugar beet” value amounted to 0%.
As to `CCc1cc(Cl)cc(OC)c1C1=C(OC(=O)C(C)(C)C)C2(CCC(C)CC2)NC1=O` (single isomer, unassigned) [Example I-1-b-4], the “Spring barley observed (%)” value in the assay on cereals [1] (50 g a.i./ha) is listed as 60%.
With `CCc1cc(Cl)cc(OC)c1C1=C(O)C(C)(C)NC1=O` [Example I-1-a-5], the entries for the “degree of damage, Alopecurus” value in the assay with Alopecurus [3] and with Alopecurus [8] were 90% and 100%, respectively. Moreover, the “degree of damage, Echinochloa” value in the assay with Echinochloa [4] and in the assay on Echinochloa [9] was 100% each time. Besides, the “degree of damage, Setaria” value in the assay with Setaria [5] and with Setaria [10] was 100% each time. Besides, the “degree of damage, Avena fatua” value with Avena fatua [6] and in the assay with Avena fatua [11] was 100% throughout. Also, the “degree of damage, Sinapis” value in the assay on Sinapis [12] is 80%.
On to `CCc1cc(Cl)cc(OC)c1C1=C(O)C2(CCCCC2)NC1=O` [Example I-1-a-6], for which the “Winter barley (%)” value in the assay on cereals [13] (winter barley) is 20%. In addition, in the assay with cereals [13] (winter wheat), the “Winter wheat (%)” value is reported as 10%. In addition, the “Destruction in % after 7 d” value in assay [7] is reported as 90%. Further, the “degree of damage, Sinapis” value in the assay with Sinapis [12] was 80%. Moreover, the “degree of damage, Alopecurus” value with Alopecurus [8] is recorded as 90%. Moreover, in the assay with Echinochloa [9], the “degree of damage, Echinochloa” value came to 100%. The “degree of damage, Avena fatua” value with Avena fatua [11] is reported as 100%.
In the case of `CCc1cc(Cl)cc(OC)c1C1=C(O)C2(CCCCC2)OC1=O` [Example I-2-a-1], the “Spring wheat observed (%)” value turned out to be 20% with Spring wheat (setting [18]), 20% in the assay on Spring wheat (setting [19]) and 30% in the assay on Spring wheat (setting [20]). Besides, the “Spring barley observed (%)” value in the assay on Spring barley (setting [18]) is on record as 10%; in the assay on Spring barley (setting [19]), 15%; with Spring barley (setting [20]) it was 20%.
As for `CCc1cc(Cl)cc(OC)c1C1=C(OC(=O)C(C)(C)C)C2(CCCCC2)OC1=O` [Example I-2-b-1], the figures for the “Spring barley observed (%)” value in the assay on cereals [1] (100 g a.i./ha), in the assay on Spring barley (setting [16]) and in the assay with Spring barley (setting [17]) were 20%, 10% and 20%, respectively. Besides, the “Spring wheat observed (%)” value in the assay with cereals [1] (100 g a.i./ha) was 30%; with Spring wheat (setting [15]) it was 20%; in the assay on Spring wheat (setting [16]), 40%; with Spring wheat (setting [17]) it was 60%.
As to `CCOC(=O)OC1=C(c2c(CC)cc(Cl)cc2OC)C(=O)OC12CCCCC2` [Example I-2-c-1], the results for the “Spring barley observed (%)” value in the assay with cereals [14] (spring barley) and with cereals [1] (100 g a.i./ha) were 50% and 15%, respectively. The “Spring wheat observed (%)” value in the assay on cereals [14] (spring wheat) worked out at 65%; in the assay on cereals [1] (100 g a.i./ha) it was 40%; with Spring wheat (setting [16]) it was 20%; in the assay with Spring wheat (setting [17]), 30%.
